Source: PMC10786037, “Autoinhibition in the Signal Transducer CIN85 Modulates B Cell Activation” (Journal of the American Chemical Society, 2023)
Values belong to the molecule of their own block, whether it stands above or below them. Where no end group is shown, it is not given here. [ ]: non-standard residue; d: D form. pS = N[C@@H](COP(=O)(O)O)C(=O)O

What was measured:
CIN85 SH3B domain [1] = biological target: T1, CIN85 SH3B domain (Homo sapiens, UniProt Q96B97); experiment: NMR titration (chemical shift perturbations) of 15N-labeled SH3B domain with synthetic CIN85-PRM1 peptide; type: binding; settings: isolated SH3B domain, CSP of 15N-labeled domain, error of fitted KD from bootstrap resampling, read-out: KD (mM), binary SH3:peptide interaction
T1 construct: GST (with thrombin cleavage site) (N); made in house; host or cells: Escherichia coli BL21(DE3)
T1 sequence (Q96B97 98-157 limits assumed): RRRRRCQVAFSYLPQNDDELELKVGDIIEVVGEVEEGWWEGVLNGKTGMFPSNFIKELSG
From the text: (§1) We further used NMR titrations to assess the interaction of CIN85-PRM1 with isolated SH3 domains of CIN85, observing chemical shift perturbations (CSP) in the ^15N-labeled SH3 domains upon titration with a synthetic 14-residue peptide of the sequence ^219FKDKPIKLRPRSIE^232 (see Figure S2). […] We mapped the CSP onto the first model of the NMR structure of SH3C (PDB: 2k9g) in Figure 2A. Binding to the CIN85-PRM1 peptide occurs through the conserved binding site, involving the RT-loop (residues 278–292), the N-Src-loop (residues 300–307), and also the 3_10-helix (residues 320–322) of SH3C (see Figure 2B). […]
(§2) with 1000 resampled datasets with replacement. After obtaining the dissociation constant, the Gibbs free energy of this interaction was calculated using the following relation: […]
(§3) with R as the ideal gas constant (8.314 Jmol−1K−1) and T as the absolute temperature in K. This quantity is useful when comparing two similar interactions that differ in their KD, i.e. variants of the same peptide that have a single-point mutation or a post-translational modification (PTM) and […]
(§4) Their difference in free energy can then be calculated as follows: […]
(§5) Determination of rotational correlation times and translational diffusion coefficients Residue-specific cross-correlated relaxation rates were determined at 800 MHz via the 2D TRACT experiment1, 12-13,using variable delays from 1-190 ms. […]

CIN85 SH3C domain [2] = experiment: NMR titration (chemical shift perturbations) of 15N-labeled SH3C domain with synthetic CIN85-PRM1 peptides; type: binding, human; settings: same peptide
From the text: (§6) The recognition of PRM by SH3 domains typically depends on the presence of positively charged residues, such as arginines at the motif’s N- or C-terminus, which often form cation−π interactions with conserved tryptophan residues in the SH3 binding interface.[30] […] We therefore used CIN85-PRM1 mutant peptide binding to the SH3C domain to determine the role of both arginines (R227 and R229) in this interaction. […] Because we knew that this interaction was in part driven by cation−π interactions, we anticipated a net energetic contribution on the order of −12 ± 6 kJ/mol if such an interaction would be disturbed by the mutation.[32] […] In the context of the whole protein, local concentration and/or cooperative effects could increase the actual strength of this interaction considerably. The residue S230 is adjacent to R229 and a known site for activation-induced phosphorylation in CIN85[33],[34] (see also Figure S4). To investigate the effect of S230s involvement in this interaction, we incorporated a phosphoserine (pS230), a S230D, and a S230A mutation into the synthetic peptide.
(§7) with 1000 resampled datasets with replacement. After obtaining the dissociation constant, the
(§8) Gibbs free energy of this interaction was calculated using the following relation: […]
as §4
(§9) The value of ∆∆G here has the meaning of the stability contribution or net energetic contribution
(§10) of the residue that was mutated. […]

CIN85 SH3A domain [3] = biological target: T2, CIN85 SH3A domain (Homo sapiens, UniProt Q96B97); experiment: NMR titration (chemical shift perturbations) of 15N-labeled SH3A domain with synthetic CIN85-PRM1 peptide; type: binding; settings: isolated SH3A domain, CSP of 15N-labeled domain, error of fitted KD from bootstrap resampling, read-out: KD (mM), binary SH3:peptide interaction
T2 construct: GST (with thrombin cleavage site) (N); made in house; host or cells: Escherichia coli BL21(DE3)
T2 sequence (Q96B97 1-58 limits assumed): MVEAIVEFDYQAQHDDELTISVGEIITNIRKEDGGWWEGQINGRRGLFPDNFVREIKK
From the text: as §1, §2, §3, §4, §5

CIN85 SH3C domain [4] = biological target: T3, CIN85 SH3C domain (Homo sapiens, UniProt Q96B97); experiment: NMR titration (chemical shift perturbations) of 15N-labeled SH3C domain with synthetic CIN85-PRM1 peptides; type: binding; settings: for difference in binding energy compared to wild-type peptide (ΔΔG, net energetic contribution of the mutated residue): calculated from the KD's of mutant and wild-type peptide to SH3C; for fold increase of KD compared to wild-type peptide: mutant peptide binding to SH3C domain
T3 construct: His7 (with TEV protease cleavage site) (N, cleaved yes); made in house; host or cells: Escherichia coli BL21(DE3)
T3 sequence (Q96B97 267-328 limits assumed): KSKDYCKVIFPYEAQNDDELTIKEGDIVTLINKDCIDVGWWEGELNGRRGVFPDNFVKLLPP
From the text: as §6, §7, §8, §4, §9, §10

CIN85 SH3B domain [5] = biological target: T4, CIN85 SH3B domain (human); experiment: NMR titration; 15N-labelled isolated SH3 domain titrated with synthetic 14-residue peptide; chemical shift perturbations; KD fitted, error by bootstrap resampling; settings: both partners purified
T4 chain: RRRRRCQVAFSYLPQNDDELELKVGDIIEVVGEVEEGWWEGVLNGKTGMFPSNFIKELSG

CIN85 SH3C domain [6] = biological target: T5, CIN85 SH3C domain (human, UniProt Q96B97-1 262-333); experiment: as above; settings: both partners purified
T5 construct: the NMR structure PDB 2k9g of SH3C was used to map the shifts; 15N-labelled for NMR; The limits of PDB 2k9g may differ from those of the construct; also called C-terminal SH3 domain
T5 sequence: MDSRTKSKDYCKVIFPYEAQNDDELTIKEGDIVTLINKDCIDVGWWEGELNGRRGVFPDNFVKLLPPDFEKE

CIN85 SH3A domain [7] = biological target: T6, CIN85 SH3A domain (human); experiment: as above; settings: both partners purified
T6 chain: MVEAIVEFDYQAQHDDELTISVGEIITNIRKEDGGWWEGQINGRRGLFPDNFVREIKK

Molecule: Ac-FKDKPIKLRPRSIE-NH2 [^219FKDKPIKLRPRSIE^232]
Kd (CIN85 SH3B domain [1]): 1.09 ± 0.05 mM | fold lower dissociation constant (KD) of SH3C than SH3A (CIN85 SH3C domain [2]; SH3C versus SH3A): 3 fold | fold lower dissociation constant (KD) of SH3C than SH3B (CIN85 SH3C domain [2]; SH3C versus SH3B): 5 fold | Kd (CIN85 SH3A domain [3]): 0.73 ± 0.02 mM

B1: CIN85-PRM1 peptide, wild type (residues 219-232) (peptide)
peptide: FKDKPIKLRPRSIE
notes: CIN85, human, residues 219-232 of the linker between SH3B and SH3C, holding the proline-rich motif CIN85-PRM1; also called wild-type CIN85-PRM1 peptide; source: synthetic peptide
Kd (CIN85 SH3B domain [5]): 1.09 mM | Kd (CIN85 SH3C domain [6]): 210 µM | Kd (CIN85 SH3A domain [7]): 730 µM

B3: CIN85-PRM1 peptide R227A (residues 219-232) (peptide)
peptide: FKDKPIKLAPRSIE
notes: CIN85, human, residues 219-232 with R227A; also called R227A mutant peptide; source: synthetic peptide
Kd (CIN85 SH3C domain [6]): 750 µM

B4: CIN85-PRM1 peptide R229A (residues 219-232) (peptide)
peptide: FKDKPIKLRPASIE
notes: CIN85, human, residues 219-232 with R229A; also called R229A mutant peptide; source: synthetic peptide
Kd (CIN85 SH3C domain [6]): 2450 µM

B5: CIN85-PRM1 peptide R227A/R229A (residues 219-232) (peptide)
peptide: FKDKPIKLAPASIE
notes: CIN85, human, residues 219-232 with R227A and R229A; also called R227A/R229A mutant peptide; source: synthetic peptide
Kd (CIN85 SH3C domain [6]): > 2450 µM

Now from value to molecule:

Kd (CIN85 SH3C domain [4]; isolated SH3C domain, NMR titration, CSP of 15N-labeled domain, error of fitted KD from bootstrap resampling, read-out: KD (mM), binary SH3:peptide interaction): > 2.45 mM
Molecule: Ac-FKDKPIKLAPASIE-NH2 [^219FKDKPIKLAPASIE^232]

difference in binding energy compared to wild-type peptide (ΔΔG, net energetic contribution of the mutated residue) (CIN85 SH3C domain [4]): 6.32 ± 1.00 kJ/mol | fold increase of KD compared to wild-type peptide (CIN85 SH3C domain [4]): 12 fold
Molecule: Ac-FKDKPIKLRPASIE-NH2 [^219FKDKPIKLRPASIE^232]

difference in binding energy compared to wild-type peptide (ΔΔG, net energetic contribution of the mutated residue) (CIN85 SH3C domain [4]): 3.28 ± 0.20 kJ/mol | fold increase of KD compared to wild-type peptide (CIN85 SH3C domain [4]): 4 fold
Molecule: Ac-FKDKPIKLAPRSIE-NH2 [^219FKDKPIKLAPRSIE^232]

Kd (CIN85 SH3C domain [6]): 200 µM
B2: CIN85-PRM1 peptide S230A (residues 219-232) (peptide)
peptide: FKDKPIKLRPRAIE
notes: CIN85, human, residues 219-232 with S230A; also called S230A peptide; source: synthetic peptide

Kd (CIN85 SH3C domain [6]): 710 µM
B6: CIN85-PRM1 peptide S230D (residues 219-232) (peptide)
peptide: FKDKPIKLRPRDIE
notes: CIN85, human, residues 219-232 with the phosphomimetic S230D; also called S230D peptide; source: synthetic peptide

Kd (CIN85 SH3C domain [6]): 2350 µM
B7: CIN85-PRM1 peptide pS230 (residues 219-232) (peptide)
peptide: FKDKPIKLRPR[pS]IE
notes: CIN85, human, residues 219-232 with phosphoserine at S230; also called pS230 peptide; source: synthetic peptide
